Measurements taken from ChEMBL document CHEMBL1201862, “PubChem BioAssay data set” (2004).
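Method: 48-hour compound exposure of cells in 96-well plates, five concentrations, linear interpolation of endpoints. At the GI50, growth is halved.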 The source made the active and inactive calls. No stated cut-off is given here; in the data, active = GI50 up to about 1.1 µM and inactive = higher. Where a SMILES comes first, the peptide text is derived from it. [ ]: non-standard residue; d: D form. Ac5c = NC1(C(=O)O)CCCC1

How the values were obtained:
Assay in all cases: DTP human tumour cell line panel, 48 h
[1] = tested on: PC-3
[2] = tested on: MDA-MB-435
[3] = tested on: 786-0
[4] = tested on: KM12
[5] = tested on: HCT-116
[6] = tested on: SF-268
[7] = tested on: A549
[8] = tested on: NCI/ADR-RES
[9] = tested on: SK-MEL-28
[10] = tested on: HT-29
[11] = tested on: UO-31
[12] = tested on: SK-MEL-2
[13] = tested on: HCC 2998
[14] = tested on: SF-295
[15] = tested on: SNB-19
[16] = tested on: HL-60
[17] = tested on: ACHN
[18] = tested on: SW-620
[19] = tested on: CCRF-CEM

| Structure (SMILES) | GI50 [1] | GI50 [2] | GI50 [3] | GI50 [4] | GI50 [5] | GI50 [6] | GI50 [7] | GI50 [8] | GI50 [9] | GI50 [10] | GI50 [11] | GI50 [12] | GI50 [13] | GI50 [14] | GI50 [15] | GI50 [16] | GI50 [17] | GI50 [18] | GI50 [19] |
| --- | --- | --- | --- | --- | --- | --- | --- | --- | --- | --- | --- | --- | --- | --- | --- | --- | --- | --- | --- |
| O=S(=O)(c1cnccc1N1CCN(CCO)CC1)N1CCCC1 | > 100 µM (inactive) | > 100 µM (inactive) | > 100 µM (inactive) | > 100 µM (inactive) | > 100 µM (inactive) | > 100 µM (inactive) | > 100 µM (inactive) | > 100 µM (inactive) | > 100 µM (inactive) | > 100 µM (inactive) | > 100 µM (inactive) | > 100 µM (inactive) | > 100 µM (inactive) | > 100 µM (inactive) | > 100 µM (inactive) | > 100 µM (inactive) | > 100 µM (inactive) | > 100 µM (inactive) | – |
| COC(=O)[C@@H](NC(=O)c1ccc(CNC(=O)/C(C)=C/c2ccccc2)cc1)C(C)C | > 100 µM (inactive) | 70 µM (inactive) | > 100 µM (inactive) | 36.1 µM (inactive) | > 100 µM (inactive) | > 100 µM (inactive) | > 100 µM (inactive) | > 100 µM (inactive) | 40.8 µM (inactive) | > 100 µM (inactive) | > 100 µM (inactive) | 51.1 µM (inactive) | 26.9 µM (inactive) | > 100 µM (inactive) | > 100 µM (inactive) | – | > 100 µM (inactive) | > 100 µM (inactive) | 4.71 µM (inactive) |
| Fc1ccc(NCn2nc(COc3ccccc3Cl)n(/N=C/c3ccc(-c4ccc(Cl)cc4Cl)o3)c2=S)cc1Cl | 38.5 µM (inactive) | 41.4 µM (inactive) | 27 µM (inactive) | 26 µM (inactive) | 28.4 µM (inactive) | 79.1 µM (inactive) | – | 43.5 µM (inactive) | > 100 µM (inactive) | > 100 µM (inactive) | 32.9 µM (inactive) | 25 µM (inactive) | – | 33 µM (inactive) | – | 15.8 µM (inactive) | 29.5 µM (inactive) | 36.1 µM (inactive) | 25.5 µM (inactive) |
| C/C=C\C1OC1(C)c1cc(=O)c2c(C)cc3c(c2o1)C(=O)c1c(O)c(C2CC(C)(N(C)C)C(OC(C)=O)C(C)O2)cc(C2CC(N(C)C)C(O)C(C)O2)c1C3=O (stereo not drawn) | 0.00405 µM (active) | 0.00449 µM (active) | < 0.00375 µM (active) | 0.0042 µM (active) | < 0.00375 µM (active) | 0.00516 µM (active) | < 0.00375 µM (active) | 0.00409 µM (active) | 0.0152 µM (active) | < 0.00375 µM (active) | 0.00509 µM (active) | 0.00463 µM (active) | < 0.00375 µM (active) | < 0.00375 µM (active) | 0.00621 µM (active) | – | < 0.00375 µM (active) | < 0.00375 µM (active) | < 0.00375 µM (active) |
| O=C1CSC2(CC(/C=C/c3cccc(Br)c3)=NN2c2cccc(S(=O)(=O)O)c2)N1c1nc2ccccc2s1 (stereo not drawn) | > 100 µM (inactive) | 62.4 µM (inactive) | > 100 µM (inactive) | > 90.8 µM (inactive) | > 100 µM (inactive) | > 100 µM (inactive) | > 100 µM (inactive) | > 100 µM (inactive) | > 100 µM (inactive) | > 100 µM (inactive) | > 96.6 µM (inactive) | > 100 µM (inactive) | > 100 µM (inactive) | > 100 µM (inactive) | > 100 µM (inactive) | – | > 100 µM (inactive) | > 100 µM (inactive) | 20 µM (inactive) |
| Cn1c(=O)c2c(-c3ccccc3)onc2n(C)c1=O | 15 µM (inactive) | 44.5 µM (inactive) | 29 µM (inactive) | 34 µM (inactive) | 27.4 µM (inactive) | 35.2 µM (inactive) | 21.3 µM (inactive) | 27.5 µM (inactive) | – | 25.2 µM (inactive) | 19.5 µM (inactive) | 15.8 µM (inactive) | 32.7 µM (inactive) | 40.7 µM (inactive) | 40.7 µM (inactive) | – | 31.9 µM (inactive) | 26.6 µM (inactive) | 22.4 µM (inactive) |
| CC(C)[Si](OC/C(=C/COC(C)(C)C)[C@H]1CC=C(C(=O)c2ccccc2N2CN(C)C(=O)N(C)C2)C1)(C(C)C)C(C)C | 5.6 µM (inactive) | 6.04 µM (inactive) | 6.61 µM (inactive) | 13.7 µM (inactive) | 2.3 µM (inactive) | 6.58 µM (inactive) | 9.53 µM (inactive) | 16.4 µM (inactive) | 6.22 µM (inactive) | 5.75 µM (inactive) | 11.1 µM (inactive) | 13.6 µM (inactive) | 12.4 µM (inactive) | 12.9 µM (inactive) | 12.1 µM (inactive) | – | 14.7 µM (inactive) | 3.17 µM (inactive) | 3.1 µM (inactive) |
| O=C(Sc1c(-c2ccccc2)c(=O)n(-c2ccccc2)c(=S)n1-c1ccccc1)c1cccs1 | 73.8 µM (inactive) | 56.4 µM (inactive) | 49.8 µM (inactive) | > 100 µM (inactive) | 56.2 µM (inactive) | > 100 µM (inactive) | > 100 µM (inactive) | 50.8 µM (inactive) | > 100 µM (inactive) | 72.3 µM (inactive) | > 100 µM (inactive) | 53 µM (inactive) | – | 61 µM (inactive) | > 100 µM (inactive) | 76 µM (inactive) | 81.8 µM (inactive) | 24.6 µM (inactive) | 11.8 µM (inactive) |
| CC(CO)(CO)/N=C/c1cc(I)cc(I)c1O | 14.2 µM (inactive) | 13.5 µM (inactive) | 13.6 µM (inactive) | 14.5 µM (inactive) | 14.8 µM (inactive) | 5.62 µM (inactive) | 54.8 µM (inactive) | 14.2 µM (inactive) | 16.6 µM (inactive) | 21.4 µM (inactive) | 12 µM (inactive) | 12.2 µM (inactive) | – | 15.8 µM (inactive) | 20.3 µM (inactive) | 11.2 µM (inactive) | 25 µM (inactive) | 22 µM (inactive) | 9.98 µM (inactive) |
| Brc1ccc(C2C3CSc4ccccc4C3=NN2c2ccccc2)cc1 (stereo not drawn) | 43.8 µM (inactive) | > 100 µM (inactive) | > 100 µM (inactive) | 44.5 µM (inactive) | > 100 µM (inactive) | 70.1 µM (inactive) | 56.9 µM (inactive) | 77.6 µM (inactive) | 67.5 µM (inactive) | 78.2 µM (inactive) | 94.8 µM (inactive) | > 100 µM (inactive) | – | – | > 100 µM (inactive) | 42.9 µM (inactive) | – | 34.7 µM (inactive) | 34.8 µM (inactive) |
| NC1(C(=O)NC2(C(=O)O)CCCC2)CCCC1 (H-[Ac5c]-[Ac5c]-OH) | > 100 µM (inactive) | > 100 µM (inactive) | > 100 µM (inactive) | > 100 µM (inactive) | > 100 µM (inactive) | > 100 µM (inactive) | > 100 µM (inactive) | > 100 µM (inactive) | > 100 µM (inactive) | > 100 µM (inactive) | > 100 µM (inactive) | > 100 µM (inactive) | – | > 100 µM (inactive) | > 100 µM (inactive) | > 100 µM (inactive) | > 100 µM (inactive) | > 100 µM (inactive) | > 100 µM (inactive) |
